According to US5393779A, “Chemical compounds” (Zeneca Limited, priority 1991, dated 1995):

Assays:
[1] = test system: rat adipocytes; assay: Rat adipocyte lipolysis test; assay type: cell-based, rats; settings: 1.5 h, rat epididymal adipocytes, 90 minutes, free fatty acids, isoprenaline 3×10^-6 M, read-out: Efficacy (maximal effect on lipolysis as a percentage of the maximal effect of isoprenaline)
Protocol: Epididymal adipose tissue was excised from male rats and adipocytes prepared by digestion with collagenase. Cells were isolated by flotation and washed four times with Krebs Ringer Bicarbonate buffer (KRB), finally washing in KRB containing 2% bovine serum albumin (KRB/BSA). Aliquots of the cell suspension were incubated in the presence of a range of concentrations of the test compound in a total volume of 1 ml KRB/2% BSA containing 0.1 mg/ml ascorbate in an atmosphere of 95%O2,5%CO2. Incubations were also carried out in the presence of a concentration of isoprenaline (3×10^-6 M) known to have a maximal effect on lipolysis. Control incubations were carried out in KRB/2% BSA containing ascorbate. The incubations were terminated after 90 minutes by placing the tubes on ice, and aliquots of infranatant removed for assay of free fatty acids which were measured using a WAKO NEFA-C assay kit (Alpha Laboratories). Lipolytic activity of the compounds was assessed by determining the increase in free fatty acid concentrations caused by the compounds compared to controls. The maximal effects (efficacy) of the compounds were determined and expressed as percentage of the maximal effect of isoprenaline.
Efficacy is the maximal effect of the test compound on lipolysis expressed as a percentage of the maximal effect of isoprenaline.

[2] = test system: Rats; assay: Test (b): heart rate in rats, D500 dose and selectivity index (SI); assay type: in vivo
Protocol: (b) Rats are adapted to a thermoneutral environment (29° C.) for 2 weeks in order to decrease their capacity for BAT mediated non-shivering thermogenesis. During the final 5 days the animals are trained to use an apparatus for measuring heart rate non-invasively via foot-pad electrodes connected to an ECG integrator giving a continuous read-out of heart rate. A test compound is administered sub-cutaneously or orally at the ED50 determined in test (a), and heart rate is determined 15-30 minutes after dosing. The procedure is then repeated in subsequent tests using increasing multiples of the ED50 determined in test (a) until the heart rate (HR) reaches or exceeds 500 beats per minute, or until the dose reaches 100 times the ED50 determined in test (a). The dose necessary to produce a heart rate of 500 beats per minute (D500 dose) is estimated.
The ratio of D500 to ED50 in test (a) can be defined as the selectivity index (SI) and provides a measure of the selectivity of the compound for BAT as opposed to the cardiovascular system.

[3] = test system: C57BL/KsJ (db/db) mice; assay: Effects on blood glucose levels in insulin resistant db/db mice; assay type: in vivo; settings: 50 mg/kg diet
Protocol: Effects on blood glucose levels in insulin resistant db/db mice C57BL/KsJ (db/db) mice were divided into two groups and allowed free access to control diet or diet containing the compound of Example 1 at a concentration of 50 mg/kg diet. A group of control (+/+) mice was also included in the experiment. After 16 days treatment, blood samples were taken from the mice for determination of blood glucose levels.
Results are mean±S.E.M. of observations in groups of 15 mice. Student's t test was used to test the significance of the difference between control (+/+) and treated (db/db) groups.

[4] = test system: Rats; assay: Test (c): metabolic rate by closed-circuit oxygen consumption in rats; assay type: in vivo; settings: 1mgkg^-1 p.o.
Protocol: (c) Rats are kept at 23° C. for at least two days, then fasted overnight. On the following day, the basal metabolic rate of the animals is determined using a close-circuit oxygen consumption apparatus of the type described by Arundel et al., 1984, J. Appl. Physiol. Respirat. Environ. Exercise Physiol., 1984, 57 (5) 1591-1593. The rats are then dosed (orally) with test compound at about 1 mgkg^-1 as a solution or suspension in 0,025% w/v Polysorbate 80 (0.5 ml/100 g). Metabolic rate is then determined for at least one hour after dosing. Compounds are considered active in this test if they cause a significant increase in metabolic rate as compared to control animals (Student's t test: p <0.05) dosed only the solution or suspension vehicle.

[5] = test system: brown adipose tissue (BAT) mitochondria; assay: Test (a): GDP binding in BAT mitochondria of cold-adapted rats as a measure of thermogenic activation; assay type: in vivo; settings: BAT removed one hour after dosing; for ED50: Rattus norvegicus, 1 h, oral, relative to isoprenaline 1 mgkg^-1, read-out: oral ED50 (dose producing 50% of the isoprenaline effect on GDP binding)
Protocol: (a) Rats are cold adapted at 4° C. for 5 days to increase their capacity for thermogenesis. They are then transferred to a warm environment of 25° C. for 2 days. On the following day, a test compound is administered sub-cutaneously or orally. Animals are sacrificed one hour later and the interscapular, brown adipose tissue (BAT) pad is removed. BAT mitochondria are prepared by differential centrifugation and GDP binding is determined (Holloway et al., International Journal of Obesity, 1984, 8, 295) as a measure of thermogenic activation. Each test includes a control which is dosed with the solution/suspension vehicle only and a positive control which is dosed with isoprenaline (as its sulphate) at 1 mgkg^-1. Test compounds are routinely dosed at 0.1, 0.3, 1.0, 3.0, and 10 […] and results expressed in terms of the effect on GDP binding produced by the positive control. […] Compounds are considered active in this test if they cause a significant elevation in GDP binding as compared to controls.

[6] = test system: Male rats; assay: Oral glucose tolerance test; assay type: in vivo; settings: for Plasma glucose: 5 mg/Kg p.o., mean±S.E.M., six rats
Protocol: Male rats (125-150 g) were fasted for 24 hours. After fasting, a group of six rats was anaesthetised and a cardiac blood sample taken. Other groups of rats were then dosed with the compound of Example 1 (5.0 mg/Kg p.o.) dissolved in an aqueous solution of 0.025% polysorbate. Control rats were dosed with polysorbate solution alone. The volume of solution dosed was 0.5 ml/100 g body weight. 60 minutes subsequent to dosing six control and six treated rats were anaesthetised and cardiac samples taken. The remaining rats were given an oral glucose load (1 g/Kg) dosed as a 20% solution of D-glucose (0.5 ml/100 g). Groups of six rats for each control and treatment were then anaesthetised and bled at 20, 60 and 120 minutes after the glucose load. Plasma glucose and insulin were determined using standard methods.
The results are mean±S.E.M. of observations in six rats in each group. Student's t test was used to test the significance of the difference between control and treated groups.

SMILES: O=C(O)Cc1ccc(OCCNC[C@H](O)c2ccccc2)cc1 [Example 1, (R)-4-[2-(2-Hydroxy-2-phenylethylamino)ethoxy]phenylacetic acid]
- Emax [1]: 100%
- SI (selectivity index, ratio of D500 to ED50 in test (a)) ([2]; oral): > 50
- effect on blood glucose levels (in words) ([3]; 16 days): normalises blood glucose levels
- Blood glucose ([3]; after 16 days treatment, mean±S.E.M., 15 mice): 5.3 ± 0.46 mM
- metabolic rate (oxygen consumption) [4]: 6.53 ml O2 min^-l (Kg^O.75)
- oral ED50 (dose producing 50% of the isoprenaline effect on GDP binding) ([5]; relative to isoprenaline 1 mgkg^-1): 0.55 mgkg^-1
- ED50 [5]: 0.55 mg/kg
- Plasma glucose ([6]; 0 mins relative to oral glucose load): 3.52 ± 0.07 mM
- Plasma glucose ([6]; 20 mins after oral glucose load (1 g/Kg)): 5.72 ± 0.24 mM
- Plasma glucose ([6]; 60 mins after oral glucose load (1 g/Kg)): 5.32 ± 0.24 mM
- Plasma glucose ([6]; 120 mins after oral glucose load (1 g/Kg)): 5.43 ± 0.31 mM
- antihyperglycaemic activity (in words) ([6]; 5.0 mg/Kg p.o., rats): marked antihyperglycaemic activity

SMILES: CC(C)NCC(O)c1ccc(O)c(O)c1 (stereo not drawn) [isoprenaline, reference compound]
- SI (selectivity index, ratio of D500 to ED50 in test (a)) ([2]; route not stated): 0.06

SMILES: O=C(O)COc1ccc(OCCNCC(O)COc2ccccc2)cc1 (stereo not drawn) [4-[2-(2-Hydroxy-3-phenoxypropylamino)-ethoxy]phenoxyacetic acid, reference compound]
- Emax [1]: 26%

SMILES: O=C(O)COc1ccc(OCCNCC(O)c2ccccc2)cc1 (stereo not drawn) [4-[2-(2-Hydroxy-2-phenylethylamino)-ethoxy]phenyloxyacetic acid, reference compound]
- ED50 [5]: > 3 mg/kg
